Measured values from patent US5723484A, “Benzopyran compounds as 5-HT2C receptor antagonists” (Adir et Compagnie, priority 1994, dated 1998).
Structures can show the parent of a compound that is named as a salt.

Assays:
[1] = target: T1, 5-HT2C receptors (Sus scrofa, UniProt K7GSR7); test: biochemical; type: binding, pig
T1 construct: pig cerebral plexus; from tissue; host or cells: pig cerebral plexus (own knowledge: choroid plexus)
T1 sequence (K7GSR7 1-457): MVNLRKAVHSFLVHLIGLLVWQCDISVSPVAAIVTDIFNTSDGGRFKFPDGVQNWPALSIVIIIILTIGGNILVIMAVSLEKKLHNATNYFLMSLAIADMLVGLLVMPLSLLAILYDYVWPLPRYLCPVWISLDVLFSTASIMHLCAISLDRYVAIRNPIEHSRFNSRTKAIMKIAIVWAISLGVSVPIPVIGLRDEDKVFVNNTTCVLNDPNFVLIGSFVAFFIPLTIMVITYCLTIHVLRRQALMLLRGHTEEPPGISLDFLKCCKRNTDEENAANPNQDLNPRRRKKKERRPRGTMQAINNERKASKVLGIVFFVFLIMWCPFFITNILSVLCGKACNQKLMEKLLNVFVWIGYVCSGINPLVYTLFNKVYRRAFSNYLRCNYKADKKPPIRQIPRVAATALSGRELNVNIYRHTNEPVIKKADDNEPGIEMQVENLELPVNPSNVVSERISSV
Protocol: (§1) Measurement of the in vitro affinity for the 5-HT2C and 5-HT2A receptors
(§2) The procedures described for the studies of the binding to the 5-HT2A and 5-HT2C receptors are exactly those described by H. Canton et al. (Eur. J. Pharmacol., 191, 93, 1990) and M. J. Millan et al. (J. Pharmacol. Exp. Ther., 262, 451-463, 1992). For 5-HT2A : rat frontal cortex/[^3 H]-ketanserin (1.0 nM). For 5-HT2C : pig […] plexus/[^3 H]-mesulergine (1.0 nM). The 50% inhibitory doses (ID50) are determined by regression analysis and the pKi values are calculated as follows: [formula] [L]=concentration of the Kd-Kd=dissociation constant Results

[2] = tested on: 5-HT2C receptors; test: biochemical; type: binding, pig; conditions: 5-HT2A Ki (rat frontal cortex) over 5-HT2C Ki (pig cerebral plexus)
Protocol: as §1, §2

[3] = target: T2, 5-HT2A receptors (Rattus norvegicus, UniProt P14842); test: In vitro affinity for the 5-HT2A receptors, rat frontal cortex/[3H]-ketanserin (1.0 nM); type: binding; conditions: for Ki: rat frontal cortex, [3H]-ketanserin 1.0 nM, average of two to four determinations
T2 construct: rat frontal cortex; from tissue; host or cells: rat frontal cortex
Protocol: as §1, §2

[4] = tested on: 5-HT2A receptors; conditions: literature; cited from earlier work
[5] = tested on: 5-HT2C receptors; conditions: literature; cited from earlier work
[6] = tested on: patients; conditions: clinical results in patients, literature; cited from earlier work
[7] = 5-HT2C Ki (nM), pig cerebral plexus, [3H]-mesulergine 1.0 nM, average of two to four determinations

T2 sequence (P14842 whole entry): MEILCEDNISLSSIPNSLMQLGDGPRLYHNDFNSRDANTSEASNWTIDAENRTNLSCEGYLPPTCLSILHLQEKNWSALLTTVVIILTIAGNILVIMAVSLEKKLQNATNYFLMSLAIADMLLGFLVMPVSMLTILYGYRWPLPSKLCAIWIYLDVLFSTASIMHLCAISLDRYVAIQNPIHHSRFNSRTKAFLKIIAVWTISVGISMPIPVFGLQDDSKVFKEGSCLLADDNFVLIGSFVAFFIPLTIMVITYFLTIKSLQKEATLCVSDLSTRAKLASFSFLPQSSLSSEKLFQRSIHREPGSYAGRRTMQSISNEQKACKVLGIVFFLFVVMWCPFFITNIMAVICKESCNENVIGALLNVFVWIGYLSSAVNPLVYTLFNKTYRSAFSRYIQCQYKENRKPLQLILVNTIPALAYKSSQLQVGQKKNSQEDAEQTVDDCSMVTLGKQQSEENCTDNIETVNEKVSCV

SMILES	Ki [1, 7] [nM]	5-HT2A /5-HT2C affinity ratio [2]	Ki [3] [µM]	action at 5-HT2A receptors [4]	affinity for the 5-HT2A sites/receptors [3]	affinity for the 5-HT2C receptors [1]	Ki ([1]; affinity for the 5-HT2C receptors, of the order of) [nM]	action at 5-HT2C receptors [5]	anxiogenic properties and exacerbation of psychiatric states [6]
Cl.c1ccc2c3c(ccc2c1)[C@@H]1CNC[C@@H]1CO3 (relative stereo) [Example 36, cis-12,13,14,15,16,17-Hexahydro-11-oxa-16-aza-cyclopenta[a]phenanthrene hydrochloride]	25.7	10	0.257	–	–	–	–	–	–
c1ccc(CN2C[C@H]3COc4ccc5ccccc5c4[C@H]3C2)cc1 (relative stereo) [Example 37, cis-2-Benzyl-1,2,3,3a,4,11c-hexahydro-5-oxa-2-aza-cyclopenta[c]phenanthrenehydrochloride]	155	8.7	1.35	–	–	–	–	–	–
Cl.c1ccc2c3c(ccc2c1)OC[C@@H]1CNC[C@H]31 (relative stereo) [Example 38, cis-1,2,3,3a,4,11c-Hexahydro-5-oxa-2-aza-cyclopenta[c]phenanthrene hydrochloride]	22.9	4.3	0.0977	–	–	–	–	–	–
COc1cccc([C@H](O)C2CCN(CCc3ccc(F)cc3)CC2)c1OC [MDL 100,907, reference compound]	–	–	–	selective 5-HT2A antagonist	very strong affinity	–	–	–	–
Cn1ccc2cc(NC(=O)Nc3cccnc3)ccc21 [SB 200,646, reference compound]	204	–	1.32	–	weak affinity	modest affinity	~200	selective 5-HT2C antagonist	–
Clc1cccc(N2CCNCC2)c1 [mCPP]	–	–	–	5-HT2A antagonist	–	–	–	5-HT2C agonist	pronounced anxiogenic properties and which exacerbates depressive, aggressive and psychotic states in patients
